# Assay results as given in article PMC8365446, “Structural determinants and distribution of phosphate specificity in ribonucleotide reductases” (The Journal of Biological Chemistry, 2021).
# Like-named read-outs stand apart in the source and are kept apart here.
# How the values were obtained:
# TVNrdJm [1] = test system: T1, TVNrdJm; assay: HPLC quantification of deoxyribonucleotide, Michaelis-Menten fit; type: biochemical, Thermus virus P74-23; conditions: effector dTTP, adenosylcobalamin, TCEP, 20 mmol L^−1 MgCl2, Tris pH 8.0, 40 °C
# T1 construct: gene nrdJ; monomeric-type class II RNR; pET28b(+) NdeI/HindIII, E. coli BL21(DE3); apical loop P-A-G-R with A67, G68, R69
# TVNrdJm [2] = test system: T2, TVNrdJm; conditions: read-out: apparent KM; effector dTTP, adenosylcobalamin, TCEP, 20 mmol L^−1 MgCl2, Tris pH 8.0, 40 °C; apparent fitted value, called lower boundary by authors (substrate inhibition omitted)
# T2 construct: gene nrdJ
Structure (SMILES),Km (TVNrdJm [1]) [µM],Km (TVNrdJm [2]) [µM]
Nc1nc2c(ncn2[C@@H]2O[C@H](COP(=O)(O)OP(=O)(O)OP(=O)(O)O)[C@@H](O)[C@H]2O)c(=O)[nH]1 [GTP],300 ± 60,
Nc1nc2c(ncn2[C@@H]2O[C@H](COP(=O)(O)OP(=O)(O)O)[C@@H](O)[C@H]2O)c(=O)[nH]1 [GDP],,> 6850
